Source: PubChem BioAssay (NCI)
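The compound was tested at five concentrations on cells cultured in 96-well plates, with a 48-hour exposure period. TGI is the concentration that stops growth completely.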

Key:
Test in all cases: NCI anticancer screen, dose series, 48 h
[1] = test system: U251 CNS
[2] = test system: MDA-N
[3] = test system: A498 renal
[4] = test system: NCI-H23 lung
[5] = test system: MOLT-4 leukemia
[6] = test system: A549 NSCLC
[7] = test system: NCI-H522 lung
[8] = test system: M14 melanoma
[9] = test system: SN12C renal
[10] = test system: HOP-92 NSCLC
[11] = test system: HT29 colon

SMILES | TGI [1] | TGI [2] | TGI [3] | TGI [4] | TGI [5] | TGI [6] | TGI [7] | TGI [8] | TGI [9] | TGI [10] | TGI [11]
O=C/C=C/c1ccco1 | > 100 µM | > 100 µM | > 100 µM | > 100 µM | > 100 µM | > 100 µM | > 100 µM | > 100 µM | > 100 µM | > 100 µM | > 100 µM
COc1ccc(C(SCCO)(c2ccccc2)c2ccccc2)cc1 | 25.9 µM | 26 µM | 33.3 µM | 34 µM | > 100 µM | 24.6 µM | 34.4 µM | 21.3 µM | 28.4 µM | 25.4 µM | 39.2 µM
COC(=O)C1CCC(=O)N1C(c1ccc(OC)cc1)c1ccc(OC)cc1 (stereo not drawn) | > 100 µM | > 100 µM | > 100 µM | > 100 µM | > 100 µM | > 100 µM | > 100 µM | > 100 µM | > 100 µM | > 100 µM | > 100 µM
NCCCNC1(c2cc3ccccc3s2)CCCCC1 | 10 µM | 3.56 µM | 9.03 µM | 31.3 µM | 15.7 µM | 21.5 µM | 9.13 µM | 3.51 µM | 22.8 µM | 25.5 µM | 10.9 µM
CCSc1cc(=O)n(C)c(=O)n1C | > 100 µM | > 100 µM | > 100 µM | > 100 µM | > 100 µM | > 100 µM | > 100 µM | > 100 µM | > 100 µM | > 100 µM | > 100 µM
CCOC(=O)NC(NC1=NCCS1)(C(=O)OCC)C(F)(F)F (stereo not drawn) | > 100 µM | > 100 µM | > 100 µM | > 100 µM | > 100 µM | > 100 µM | > 100 µM | > 100 µM | > 100 µM | > 100 µM | > 100 µM
Fc1ccc2nc3n(c2c1)C(c1c(Cl)cccc1Cl)SC3 (stereo not drawn) | > 100 µM | > 100 µM | > 100 µM | > 100 µM | > 100 µM | > 100 µM | > 100 µM | > 100 µM | > 100 µM | > 100 µM | > 100 µM
CC(C)(C)c1cc(C2=NN(c3ccccc3)C(c3ccccc3)C2)cc(C(C)(C)C)c1O (stereo not drawn) | > 100 µM | > 100 µM | > 100 µM | > 100 µM | > 100 µM | > 100 µM | > 100 µM | > 100 µM | > 100 µM | > 100 µM | > 100 µM
Brc1ccc2c([C@H]3CN[C@@H](c4c[nH]c5cc(Br)ccc45)CN3)c[nH]c2c1 | 4.19 µM | 3.04 µM | 3.6 µM | 8.95 µM | 6.48 µM | 7.39 µM | 3.15 µM | 5.91 µM | 12.4 µM | 12.2 µM | 4.01 µM
N=C(N)SCc1ccc(Cl)cc1Cl (tested in a mixture with another compound) | 28.5 µM | 21.6 µM | 27.5 µM | 32.4 µM | 35.4 µM | > 69.6 µM | 30.8 µM | 26.9 µM | 27 µM | 34.6 µM | 29.2 µM
O=c1oc2cc(O)ccc2c(O)c1C(c1cccnc1)c1c(O)c2ccc(O)cc2oc1=O | > 100 µM | > 100 µM | > 100 µM | > 100 µM | > 100 µM | > 100 µM | > 100 µM | > 100 µM | > 100 µM | > 100 µM | > 100 µM
O=C(/C=C/c1ccc(O)c(O)c1)c1cc(O)cc(O)c1 | 22.7 µM | 20.5 µM | 33.4 µM | 26.4 µM | > 100 µM | > 100 µM | 3.73 µM | 26.9 µM | 26.2 µM | 26.8 µM | 39 µM
COc1ccc(/C=C2\CCC(CNc3ccc(OC)cc3)C2=O)cc1 (stereo not drawn) | 38.5 µM | 30.8 µM | > 66 µM | 19 µM | > 40.8 µM | > 94.1 µM | 11.6 µM | 34.9 µM | 33.1 µM | 42.7 µM | 33.2 µM
Cc1cc(C)c2c(n1)S(=O)(=O)N(CCCN1CCN(c3cccc(C(F)(F)F)c3)CC1)c1c-2nn(C)c1C | > 100 µM | > 100 µM | > 100 µM | > 100 µM | > 100 µM | > 100 µM | > 100 µM | > 100 µM | > 100 µM | > 100 µM | 52 µM
Cn1c2ccccc2c2c(=O)[nH]c(=O)[nH]c21 | > 100 µM | > 100 µM | > 100 µM | > 100 µM | > 100 µM | > 100 µM | > 100 µM | > 100 µM | > 100 µM | > 100 µM | > 100 µM
CSc1c(C#N)c(N)nc2c(N=Nc3ccc(Cl)cc3)c(N)nn12 | 11 µM | 23.4 µM | > 100 µM | 7.25 µM | 5.47 µM | > 73.8 µM | 22.5 µM | 47.6 µM | 8.1 µM | 8.64 µM | 8.38 µM
Cc1cc(Cc2c(F)c(F)c(C(c3cc(C)no3)c3c(F)c(F)c(F)c(F)c3F)c(F)c2F)on1 (stereo not drawn) | > 100 µM | 15.1 µM | > 100 µM | > 100 µM | > 100 µM | > 100 µM | > 100 µM | > 100 µM | > 100 µM | > 100 µM | > 100 µM
c1csc(-c2cc(-c3cccs3)c(-c3cccs3)s2)c1 | > 100 µM | > 100 µM | > 100 µM | > 100 µM | > 100 µM | > 100 µM | > 100 µM | > 100 µM | > 100 µM | > 100 µM | > 100 µM
Cc1ccc(OC2CC(n3cnc4ncnc(Cl)c43)OC2Oc2ccc(C)cc2)cc1 (stereo not drawn) | > 100 µM | > 100 µM | > 100 µM | 82.5 µM | > 100 µM | 82.5 µM | > 100 µM | 65.8 µM | > 100 µM | > 100 µM | > 100 µM

SMILES | TGI [1] | TGI [2] | TGI [3] | TGI [4] | TGI [5] | TGI [6] | TGI [7] | TGI [8] | TGI [9] | TGI [10] | TGI [11]
N#C/C(=C\NC(=S)c1ccncc1)c1nc2ccccc2s1 | > 100 µM | > 100 µM | > 100 µM | > 100 µM | > 100 µM | > 100 µM | > 100 µM | > 100 µM | > 100 µM | > 100 µM | > 100 µM
Cc1noc2nnn(-c3ccc(Cl)cc3)c(=O)c12 | 17.7 µM | 17.9 µM | 27.1 µM | 20.5 µM | 1.94 µM | 27.7 µM | 2.24 µM | 25.4 µM | 12.2 µM | 17.9 µM | 17.2 µM
CSc1ccc(NC(=S)NN(C)C)cc1 | > 10 µM | > 10 µM | > 10 µM | > 10 µM | > 10 µM | > 10 µM | > 10 µM | > 10 µM | > 10 µM | > 10 µM | > 10 µM
CC(=C(C(N)=O)C(N)=O)C1C=C(c2cccs2)CC(c2ccc(Cl)cc2)=C1O (stereo not drawn) | > 100 µM | > 100 µM | > 100 µM | > 100 µM | > 100 µM | > 100 µM | > 100 µM | > 100 µM | > 100 µM | > 100 µM | > 100 µM
CCCCN1C(=O)c2c(-c3sccc3N)sc(-c3sccc3N)c2C1=O | 51.6 µM | > 34.6 µM | 76.8 µM | > 100 µM | > 24.4 µM | > 100 µM | > 100 µM | > 100 µM | > 55 µM | > 100 µM | 44.5 µM
Cc1cccnc1/N=C/c1c(O)n(C)c(=O)[nH]c1=O | > 100 µM | > 100 µM | > 100 µM | > 100 µM | > 100 µM | > 100 µM | > 100 µM | > 100 µM | > 100 µM | > 100 µM | > 100 µM
CC1OC2(CC(OCc3ccccc3)C1OCc1ccccc1)OCCO2 (stereo not drawn) | > 100 µM | > 100 µM | > 100 µM | > 100 µM | 75.2 µM | > 100 µM | > 100 µM | > 100 µM | > 100 µM | > 100 µM | 58.2 µM
CCCCCCCCCCCCOP(=O)(O)OCC(N)C(=O)O (stereo not drawn) | 26.7 µM | 62.6 µM | 75.8 µM | > 100 µM | 36.2 µM | > 100 µM | > 100 µM | > 100 µM | 61 µM | 43.3 µM | > 100 µM
N=c1c2c(-c3ccccc3)c[nH]c2ncn1N | > 100 µM | > 100 µM | > 100 µM | > 100 µM | > 100 µM | > 100 µM | > 100 µM | > 100 µM | > 100 µM | > 100 µM | > 100 µM
CCn1cc(C(=O)O)c(=O)c2cc3c(cc21)S(=O)(=O)CC3 | > 100 µM | > 100 µM | > 100 µM | > 100 µM | > 100 µM | > 100 µM | > 100 µM | > 100 µM | > 100 µM | > 100 µM | > 100 µM
CC1OC(O[C@H]2C3C=CO[C@@H](OC4OC(CO)C(O)C(O)C4O)C3[C@@]3(COC(=O)/C=C/c4ccc(O)cc4)O[C@@H]23)C(O)C(O)C1O (stereo partly drawn) | > 100 µM | > 100 µM | > 100 µM | > 100 µM | > 100 µM | > 100 µM | > 100 µM | > 100 µM | > 100 µM | > 100 µM | > 100 µM
Cn1c(-c2ccccc2)cc2c3ccsc3c3ccsc3c21 | > 100 µM | > 100 µM | > 100 µM | > 100 µM | > 100 µM | > 100 µM | > 100 µM | > 100 µM | > 100 µM | > 100 µM | > 100 µM
Nc1nc(Cl)cc(NCCC2(CO)CCC2)n1 | > 100 µM | > 100 µM | > 100 µM | > 100 µM | > 100 µM | > 100 µM | > 100 µM | > 100 µM | > 100 µM | > 100 µM | > 100 µM
COc1ccc(OC)c(CC2CCc3nc(N)nc(N)c3C2)c1 (stereo not drawn) | > 100 µM | 27.7 µM | 62 µM | > 49.8 µM | > 100 µM | > 100 µM | 25 µM | 24.3 µM | > 100 µM | 77.4 µM | > 100 µM
O=C(CCCCCCC(=O)Nc1cccnc1)NO | > 54.8 µM | > 25.6 µM | > 100 µM | > 100 µM | > 100 µM | > 100 µM | 17.3 µM | > 56 µM | > 38.8 µM | > 100 µM | > 37.4 µM
Cc1cc(C)nc(SC(C)C(=O)N/N=C/c2ccc(OCc3ccccc3)cc2)n1 (stereo not drawn) | > 100 µM | > 100 µM | > 100 µM | > 100 µM | 86.1 µM | > 100 µM | > 100 µM | > 100 µM | > 100 µM | > 100 µM | > 100 µM
O=C(/C=C/c1cc(O)c(O)cc1O)OCCc1ccccc1 | > 57.9 µM | 20.2 µM | 37.4 µM | 53.1 µM | 11.7 µM | > 100 µM | 4.74 µM | 32.7 µM | 22.1 µM | 20.5 µM | 41.6 µM
O=C1CCC(=O)N1n1c(Cc2ccc(Cl)cc2)n[nH]c1=O | > 100 µM | > 100 µM | > 100 µM | > 100 µM | > 100 µM | > 100 µM | > 100 µM | > 100 µM | > 100 µM | > 100 µM | > 100 µM
CC(C)C1=CCC2C(=C1)CCC1C(C)(C(=O)O)CCCC21C (stereo not drawn) (tested in a mixture with another compound) | > 100 µM | > 100 µM | > 100 µM | > 100 µM | > 100 µM | > 100 µM | > 100 µM | > 100 µM | > 100 µM | > 100 µM | > 100 µM
